Source: US20260193171A1, “PHARMACEUTICAL SALT OF POLYAMINE DERIVATIVE, CRYSTAL FORM THEREOF, AND PREPARATION METHOD THEREFOR” (WUHAN WUYAO SCI & TECH CO., LTD, priority 2022, published 2026)
Where two headings read alike, the source gives them in different places.

Legend:
Assay type in all cases: physicochemical
[1] = Screening of salt form (salt-forming morphology); details: for Salt-forming morphology: free base in ethanol plus acid, room temperature, acid-base molar feeding ratio 1:1 (α, unmarked) or 3:1 (β)
Procedure: The subsequent processing steps were as follows: 1) the turbid system(s) was centrifuged to separate solids; 2) the wall-sticking and gelling system(s) was subjected to cyclic heating and cooling treatment at 25-50° C. (the heating and cooling procedure is shown in Table 5) for the purpose of trying to improve the apparent state/obtain solids; 3) the clear or slightly turbid system(s) was magnetically stirred at 5° C. for about 5 h, and then left to stand at −20° C. overnight for the purpose of trying to collect a sufficient amount of solids for subsequent characterization, and if the amount of solids was still low, slow volatilization at room temperature was performed; if the system(s) was still clear ultimately, anti-solvent addition (n-heptane) or slow volatilization at room temperature was performed. The solids obtained above were centrifuged.

[2] = Stability of acid-base ratio on recrystallization in methanol-water or water-methanol; details: methanol-water or water-methanol recrystallization system
[3] = Determination of hygroscopicity (Chinese Pharmacopoeia 2015); details: 25° C., 80% RH, 24 h; for Hygroscopicity (%): weight gain
Procedure: The hygroscopicity was determined by referring to the guiding principle of the hygroscopicity test of medicaments in the Phamacopoeia of the People's Republic of China 2015 Edition. The specific test method is as follows: • 1. taking a dried glass weighing bottle with a stopper (outside diameter: 50 mm, height: 15 mm) and placing in a suitable 25° C.±1° C. thermostatic dryer (with a saturated ammonium chloride or ammonium sulfate solution placed in the lower part) or a climatic cabinet (with temperature set at 25° C.±1° C., and relative humidity set at 80%±2%) one day before the test, and accurately weighing the weight (m1). • 2. taking an appropriate amount of a test sample, spreading it in the weighing bottle described above with a thickness of about 1 mm, and accurately weighing the weight (m2). • 3. opening the weighing bottle, and placing it under constant temperature and humidity conditions for 24 h together with the bottle cap. • 4. covering the weighing bottle, and accurately weighing the weight (m3).
(§1) The stability of the samples were determined by HPLC, and specifically, Agilent 1260 Infinity II LC System (equipped with a DAD detector) was used to collect the purity and solubility data of samples. The hygroscopicity of samples was determined according to the method in the Phamacopoeia of the People's Republic of China, and the specific determination method is shown in section “6. Determination of hygroscopicity” of the specification.

[4] = Solid stability test at 25° C./60% RH, chemical purity by HPLC; details: for Change in properties and purity on storage: 5 days and 2 weeks; for Purity (peak area, %) 0 day: initial sample; for Stability (judgement in words): room temperature storage
Procedure: The stability of a sample(s) was determined by HPLC, and specifically, Agilent 1260 Infinity II LC System (equipped with a DAD detector) was used to collect the purity and solubility data of the sample(s).
To assess the solid stability of different salts, about 15 mg of a sample was weighed into an HPLC vial, and the vial was opened and placed at 25° C./60% RH. The initial sample and the samples stored for 5 days and 2 weeks were subjected to chemical purity assays (HPLC) and hygroscopicity tests. […] The solid phosphate prepared with an acid-base feeding ratio of 1 or 3 was sampled to measure the acid-base ratio, and the test method for the content of phosphate radical ions is shown in Table 2.
as §1

[5] = Crystal form stability of phosphate crystal form A; details: 2 weeks
Procedure: The conditions of the X-ray powder diffractometer (XRPD) test were as follows: X-ray powder diffraction data of a sample(s) was collected at ambient conditions using Bruker D2 PHASER X-ray powder diffractometer with an X-ray emitter power of 300 W, a sample stage with no background signal, a step speed of 0.15 s/step, total step of 1837 steps, a step size of 2θ=0.02°, a voltage of 30 kV, and a current of 10 mA. The X-ray tube was a tube of Cu target (Kα) with a Kα2/Kα1 strength ratio of 0.50 (1.54439 Å/1.5406 Å).

[6] = Stability of free base left at room temperature
[7] = Dynamic solubility in water and biological vehicles at 37° C.; details: for solubility: thermodynamic from solid, 100 rpm, 1/4/24 h, HPLC
Procedure: The phosphate was subjected to dynamic solubility tests in water and 3 biological vehicles (simulated gastric juice SGF, simulated fasting intestinal juice FaSSIF, and simulated feeding intestinal juice FeSSIF) at 37° C., and the specific method for the solubility tests were as follows: four samples of 30 mg each were weighed, and added into 3 mL of water and 3 biological solvents separately, and shaken at a constant temperature of 37° C.
The solubility of the phosphate in water/SGF/FaSSIF/FeSSIF was >9 mg/mL. The solubility of samples was determined by HPLC, and specifically, Agilent 1260 Infinity II LC System (equipped with a DAD detector) was used to collect the purity and solubility data of samples. […] The phosphate had good solubility both in water and simulated in-vivo environment.

[8] = Observation of isolated solid after filtration; details: after slurrying with ethyl acetate and filtration, room temperature
Procedure: The solution of phosphoric acid in methanol was slowly and dropwise added to the solution of the free base in methanol. The mixture was reacted under stirring at 0-5° C. for 4 h. Serious wall sticking was observed. After the methanol was concentrated to dryness, the sticky solid on the wall was scraped by a spatula, slurried with ethyl acetate, and then filtered. […] The oil was dried in an oven at 30° C. for 16 h to obtain a solid. The solid was sampled for purity, content, and acid-base ratio tests. The acid-base ratio is the molar amount of phosphoric acid/the molar amount of bis((N-3-aminopropyl)-(N-(3,4-dimethoxyphenylpropionyl)))aminopropylamine, namely the acid-base molar ratio.

Molecule: O=C(O)c1cc(O)ccc1O [Gentisic acid]
- Salt-forming morphology [1]: Gel^†

Molecule: bis((N-3-aminopropyl)-(N-(3,4-dimethoxyphenylpropionyl)))aminopropylamine phosphate
- Change of acid-base ratio after recrystallization [2]: more than 10%
- Hygroscopicity class [3]: extremely hygroscopic
- Hygroscopicity (%) [3]: 18.05%
- Purity (peak area, %) 2 weeks ([4]; 25° C./60% RH, open vial, 2 weeks, HPLC): 99.24%
- Change in properties and purity on storage ([4]; 25° C./60% RH, open vial): change into liquid from powdery solid
- Purity (peak area, %) 5 days ([4]; 25° C./60% RH, open vial, 5 days, HPLC): 99.41%
- Purity (peak area, %) 0 day ([4]; 25° C./60% RH, open vial, HPLC): 99.45%
- Stability (judgement in words) [4]: poor stability

Molecule: O=C(O)/C=C/C(=O)O [Fumaric acid]
- Salt-forming morphology [1]: Gel^#

Molecule: O=C(O)[C@H](O)[C@@H](O)C(=O)O [L-tartaric acid]
- Salt-forming morphology [1]: Solid^※
- State of solid after being sealed and placed at room temperature ([1]; sealed, 1 week): gelled

Molecule: O=C(O)/C=C\C(=O)O [Maleic acid]
- Salt-forming morphology [1]: Gel^#

Molecule: O=C(O)CCC(=O)O [Succinic acid]
- Salt-forming morphology [1]: Gel*

Molecule: COc1ccc(CCC(=O)N(CCCN)CCCNCCCN(CCCN)C(=O)CCc2ccc(OC)c(OC)c2)cc1OC [Example 7, bis((N-3-aminopropyl)-(N-(3,4-dimethoxyphenylpropionyl)))aminopropylamine phosphate]
- Change in crystal form after storage ([5]; 25° C./60% RH): no change in crystal form
- Change in crystal form after storage ([5]; 60° C.): no change in crystal form
- Change in crystal form after storage ([5]; 80° C.): no change in crystal form
- Change in crystal form after storage ([5]; illumination): no change in crystal form

Molecule: Oxalate
- Hygroscopicity class [3]: extremely hygroscopic
- Hygroscopicity (%) [3]: 18.62%
- Salt-forming morphology [1]: Solid

Molecule: CS(=O)(=O)O [Methanesulfonic acid]
- Salt-forming morphology [1]: Gel*

Molecule: COc1ccc(CCC(=O)NCCCN(CCCN)CCCNC(=O)CCc2ccc(OC)c(OC)c2)cc1OC [free base, bis((N-3-aminopropyl)-(N-(3,4-dimethoxyphenylpropionyl)))aminopropylamine]
- Purity before storage ([6]; initial): 97.56%
- Purity after left at room temperature for 7 days ([6]; room temperature, 7 days): 73.73%

Molecule: bis((N-3-aminopropyl)-(N-(3,4-dimethoxyphenylpropionyl)))aminopropylamine hydrochloride [Hydrochloride^α]
- Hygroscopicity class [3]: extremely hygroscopic
- Hygroscopicity (%) [3]: 24.7%

Molecule: COc1ccc(CCC(=O)N(CCCN)CCCNCCCN(CCCN)C(=O)CCc2ccc(OC)c(OC)c2)cc1OC [bis((N-3-aminopropyl)-(N-(3,4-dimethoxyphenylpropionyl)))aminopropylamine phosphate]
- Hygroscopicity class [3]: slightly hygroscopic
- Hygroscopicity (%) [3]: 1.29%
- solubility ([7]; simulated fasting intestinal juice (FaSSIF), fassif, simulated fasting intestinal juice, read-out: Solubility in FaSSIF): > 9000 µg/mL
- solubility ([7]; simulated feeding intestinal juice (FeSSIF), fessif, simulated feeding intestinal juice, read-out: Solubility in FeSSIF): > 9000 µg/mL
- solubility ([7]; simulated gastric juice (SGF), simulated gastric fluid, simulated gastric juice, read-out: Solubility in SGF): > 9000 µg/mL
- solubility ([7]; water, 30 mg in 3 mL, read-out: Solubility in water): > 9000 µg/mL
- pH value change during dynamic solubility test ([7]; within 24 h): did not change
- Change in properties and purity on storage ([4]; 25° C./60% RH, open vial): no obvious change in properties and purity
- Purity (peak area, %) 0 day ([4]; 25° C./60% RH, open vial, HPLC): 99.56%
- Stability (judgement in words) [4]: good stability

Molecule: O=C(O)c1ccccc1 [Benzoic acid]
- Salt-forming morphology [1]: Oil^#

Molecule: COc1ccc(CCC(=O)NCCCN(CCCN)CCCNC(=O)CCc2ccc(OC)c(OC)c2)cc1OC.O=P(O)(O)O [Comparative Example 1, bis((N-3-aminopropyl)-(N-(3,4-dimethoxyphenylpropionyl)))aminopropylamine phosphate]
- Hygroscopic behaviour of solid after filtration [8]: extremely hygroscopic and quickly turned into an oil

Molecule: Cc1ccc(S(=O)(=O)O)cc1 [p-Toluene sulfonic acid]
- Salt-forming morphology [1]: Gel*

Molecule: O=C(O)CNC(=O)c1ccccc1 [Hippuric acid]
- Salt-forming morphology [1]: Oil^#
